Consider three compounds from patent US20110207751A1, “HETEROCYCLIC COMPOUNDS AND USES AS ANTICANCER AGENTS” (priority 2010, published 2011).

Assay [1] has as its system H596 cells (human adenosquamous lung carcinoma cell line). Description: Inhibition of cell proliferation, xCelligence cell index. It is filed as cell-based. To be noted: NCI-H596, 72 hr post compound treatment, read-out: calculated IC50. An excerpt:
(§1) The biological activity of compounds disclosed herein was monitored and profiled using the Real-Time Cell Electronic Sensing (RT-CES®) system from ACEA Biosciences, Inc. The RT-CES system utilizes cell-substrate impedance technology to monitor cellular behavior inside tissue culture wells in a microtiter plate format. The technology features in the integration of molecular and cell biology with microelectronics and is based on the electronic detection of biological assay process. The details of this cell electronic sensing technology and associated devices, systems and methods of use are described in U.S. Pat. No. 7,167,585; U.S. Pat. No. 7,468,255; PCT publication number WO 2004/010102; U.S. Pat. No. 7,470,533; and U.S. Pat. No. 7,459,303, each of which is incorporated herein by reference. Additional details of RT-CES technology are further disclosed in U.S. Pat. No. 7,468,255.
(§2) For measurement of cell-substrate or cell-electrode impedance using RT-CES technology, microelectrodes having appropriate geometries are fabricated onto the bottom surfaces of microtiter plate or similar device, facing into the wells. […] When there are changes to the biological status of the cells analogue electronic readout signals are measured automatically and in real time, and are converted to digital signals for processing and for analysis. In a RT-CES system, a cell index (arbitrary representation of change in impedance) is automatically derived and provided based on measured electrode impedance values. […]
(§3) To quantify cell status based on the measured cell-electrode impedance, a parameter termed Cell Index is derived. Cell Index is a quantitative measure of the status of the cells in an electrode-containing well. […]
H596 cells (human adenosquamous lung carcinoma cell line) were seeded into wells of 96 well E-plate devices (Roche) with an initial seeding density of 5000 cells per well and were pre-incubated in incubator under standard cell culture condition for about 24 hours. […] The cell status was monitored prior to and after the compound addition using xCelligence system (Roche). […]

For assay [2], the system named is GTL16 cells (human gastric cancer cell line). The assay is described as above. It is filed as cell-based. As to conditions: GTL 16, 72 hr post compound treatment, read-out: calculated IC50.
Text: as §1
For measurement of cell-substrate or cell-electrode impedance using RT-CES technology, microelectrodes having appropriate geometries are fabricated onto the bottom surfaces of microtiter plate or similar device, facing into the wells. Cells are introduced into the wells of the devices, and make contact to and attach to the electrode surfaces. The presence, absence or change of properties of cells affects the electronic and ionic passage on the electrode sensor surfaces. Measuring the impedance between or among electrodes provides important information about biological status of cells present on the sensors. When there are changes to the biological status of the cells analogue electronic readout signals are measured automatically and in real time, and are converted to digital signals for processing and for analysis. In a RT-CES system, a cell index (arbitrary representation of change in impedance) is automatically derived and provided based on measured electrode impedance values. […]
as §3

Assay [3] relates to U138MG cells (human brain cancer cell line). Described as above. The class given is cell-based. To be noted: U138-MG, 72 hr post compound treatment, read-out: calculated IC50.
Assay [4] deals with HT1080 cells (human connective tissue cancer cell line). The assay is described as above. The class given is cell-based. As to conditions: HT-1080, 72 hr post compound treatment, read-out: calculated IC50.
Text: The biological activity of compounds disclosed herein was monitored and profiled using the Real-Time Cell Electronic Sensing (RT-CES®) system from ACEA Biosciences, Inc. The RT-CES system utilizes cell-substrate impedance technology to monitor cellular behavior inside tissue culture wells in a microtiter plate format. The technology features in the integration of molecular and cell biology with microelectronics and is based on the electronic detection of biological assay process. […]
as §2, §3

The next assay relates to MAP-rich tubulin. Description: In vitro microtubule assembly assay. It is filed as biochemical. As to conditions: absorbance at 405 nm. The protocol: In vitro microtubule assembly assay. Microtubule polymerization was conducted in a 96-well microtiter plate with MAP-rich tubulin and various concentrations of COMPOUND O in a buffer containing 80 mM PIPES pH 6.9, 0.5 mM EGTA, 2 mM MgCl2, 1 mM GTP, 10% glycerol and 4% (v/v) dimethyl sulfoxide (DMSO) based on the HTS-tubulin polymerization assay kit protocol (Cytoskeleton). The increase in absorbance was measured at 405 nm a Beckman Multimode DTX880 plate reader at 37° C. and recorded every 60 seconds for 30 minutes.

Where a name gives a salt, the structure may show the parent alone.

Take `CCc1ccc(Nc2nc(-c3c(C)nc4sccn34)cs2)cc1` [COMPOUND O, 2-(4-ethylphenyl)amino-4-(6-methylimidazo[2,1-b]thiazol-5-yl)-thiazole monohydrobromide]: the IC50 in assay [1] is 37.9 nM; in assay [2], 67 nM; in assay [3] it was 3.41 nM; in assay [4], 7.63 nM. The “effect on tubulin polymerization” value in the assay with MAP-rich tubulin (0.04 μM) is “no inhibition”. Moreover, the “effect on tubulin polymerization, concentration dependence” value with MAP-rich tubulin (various concentrations) is “inhibited in a concentration-dependent manner”.
Regarding `CC(=O)O[C@H]1C(=O)[C@@]2(C)[C@H]([C@H](OC(=O)c3ccccc3)[C@]3(O)C[C@H](OC(=O)[C@H](O)[C@@H](NC(=O)c4ccccc4)c4ccccc4)C(C)=C1C3(C)C)[C@]1(OC(C)=O)CO[C@@H]1C[C@@H]2O` [paclitaxel], the IC50 was 12.5 nM in assay [1], 1.02 nM in assay [2] and 18.1 nM in assay [3]. The “effect on tubulin polymerization” value with MAP-rich tubulin (5 μM) is given as “further enhanced compared to that of the negative control”.
Take `CC[C@]1(O)C[C@H]2CN(CCc3c([nH]c4ccccc34)[C@@](C(=O)OC)(c3cc4c(cc3OC)N(C=O)[C@H]3[C@@](O)(C(=O)OC)[C@H](OC(C)=O)[C@]5(CC)C=CCN6CC[C@]43[C@@H]65)C2)C1` [vincristine]: the IC50 in assay [1] is 36.9 nM; in assay [2] it was 3.75 nM; in assay [3], 0.641 nM; in assay [4] it was 2.01 nM. Besides, the “inhibition of tubulin polymerization compared with control sample” value in the assay on MAP-rich tubulin (5 μM) was “more than 50%”.

As a reminder, the IC50 is the point on the concentration scale where inhibition reaches its midpoint.
